Publication PMC12028158, “Synthesis and In Vitro Evaluation of the Anticancer Effect of Novel Phosphonium Vindoline Derivatives” (International Journal of Molecular Sciences, 2025)
Like-named read-outs stand apart in the source and are kept apart here.

Tests used:
Type in all cases: cell-based
SK-OV-3 = experiment: NCI60 five-dose screen; conditions: Homo sapiens
SNB-19 = experiment: NCI60 one-dose screen; conditions: Homo sapiens
HCT-116 = experiment: NCI60 one-dose screen; conditions: Homo sapiens
HOP-62 = experiment: NCI60 one-dose screen; conditions: Homo sapiens
MALME-3M [1] = experiment: NCI60 five-dose screen; conditions: Homo sapiens
A549/ATCC = experiment: NCI60 one-dose screen; conditions: Homo sapiens
RPMI-8226 = experiment: NCI60 five-dose screen; conditions: Homo sapiens
SF-268 = experiment: NCI60 five-dose screen; conditions: Homo sapiens
NCI-H226 = experiment: NCI60 one-dose screen; conditions: Homo sapiens
NCI/ADR-RES = experiment: NCI60 five-dose screen; conditions: Homo sapiens
HS 578T = experiment: NCI60 five-dose screen; conditions: Homo sapiens
SF-539 = experiment: NCI60 five-dose screen; conditions: Homo sapiens
BT-549 [2] = experiment: NCI60 five-dose screen; conditions: Homo sapiens
OVCAR-8 = experiment: NCI60 one-dose screen; conditions: Homo sapiens
Breast Cancer panel = experiment: NCI60 five-dose screen, panel mean; conditions: Homo sapiens, read-out: Mean GI50
SK-MEL-2 = experiment: NCI60 one-dose screen; conditions: Homo sapiens
Renal Cancer panel = experiment: NCI60 five-dose screen, panel mean; conditions: Homo sapiens, read-out: Mean GI50
RXF 393 [3] = experiment: NCI60 one-dose screen; conditions: Homo sapiens
HCT-15 [4] = experiment: NCI60 five-dose screen; conditions: Homo sapiens
UACC-62 = experiment: NCI60 one-dose screen; conditions: Homo sapiens
LOX IMVI = experiment: NCI60 one-dose screen; conditions: Homo sapiens, read-out: Growth percent
CAKI-1 = experiment: NCI60 one-dose screen; conditions: Homo sapiens
COLO 205 = experiment: NCI60 five-dose screen; conditions: Homo sapiens
OVCAR-3 [5] = experiment: NCI60 one-dose screen; conditions: Homo sapiens
SK-MEL-28 [6] = experiment: NCI60 five-dose screen; conditions: Homo sapiens
CNS Cancer panel = experiment: NCI60 five-dose screen, panel mean; conditions: Homo sapiens, read-out: Mean GI50
MALME-3M [7] = experiment: NCI60 one-dose screen; conditions: Homo sapiens, read-out: Growth percent
NCI-H23 = experiment: NCI60 one-dose screen; conditions: Homo sapiens
HL-60(TB) [8] = experiment: NCI60 one-dose screen; conditions: Homo sapiens
RXF 393 [9] = experiment: NCI60 five-dose screen; conditions: Homo sapiens
OVCAR-3 [10] = experiment: NCI60 five-dose screen; conditions: Homo sapiens
BT-549 [11] = experiment: NCI60 one-dose screen; conditions: Homo sapiens
UO-31 = experiment: NCI60 one-dose screen; conditions: Homo sapiens
HT29 = experiment: NCI60 one-dose screen; conditions: Homo sapiens
OVCAR-4 = experiment: NCI60 one-dose screen; conditions: Homo sapiens
SK-MEL-28 [12] = experiment: NCI60 one-dose screen; conditions: Homo sapiens
Leukemia panel = experiment: NCI60 five-dose screen, panel mean; conditions: Homo sapiens, read-out: Mean GI50
NCI-H322M [13] = experiment: NCI60 five-dose screen; conditions: Homo sapiens
Ovarian Cancer panel = experiment: NCI60 five-dose screen, panel mean; conditions: Homo sapiens, read-out: Mean GI50
HL-60(TB) [14] = experiment: NCI60 five-dose screen; conditions: Homo sapiens
K-562 = experiment: NCI60 five-dose screen; conditions: Homo sapiens, K562
HCC-2998 = experiment: NCI60 five-dose screen; conditions: Homo sapiens
HCT-15 [15] = experiment: NCI60 one-dose screen; conditions: Homo sapiens
CCRF-CEM = experiment: NCI60 one-dose screen; conditions: Homo sapiens, read-out: Growth percent
SNB-75 = experiment: NCI60 one-dose screen; conditions: Homo sapiens
NCI-H322M [16] = experiment: NCI60 one-dose screen; conditions: Homo sapiens, read-out: Growth percent

CCC12C=CCN3CCC4(c5ccc(OC)cc5N(C)C4C(O)(C(=O)OC)C1OC(=O)CCC[P+](c1ccc(C)cc1)(c1ccc(C)cc1)c1ccc(C)cc1)C32 (centres unmarked) [9a]
GI50 (SK-OV-3; SK-OV-3): 290 nM
activity at 10 µM (SNB-19; SNB-19, read-out: Growth percent): -97.3%
activity at 10 µM (HCT-116; HCT-116, read-out: Growth percent): -93.4%
activity at 10 µM (HOP-62; HOP-62, read-out: Growth percent): -81.6%
GI50 (MALME-3M [1]; Malme-3M): 220 nM
activity at 10 µM (A549/ATCC; A549, read-out: Growth percent): -90.3%
GI50 (RPMI-8226; RPMI-8226): 186 nM
GI50 (SF-268; SF-268): 343 nM
activity at 10 µM (NCI-H226; NCI-H226, read-out: Growth percent): -77.4%
GI50 (NCI/ADR-RES): 8870 nM
GI50 (HS 578T; Hs-578T): 344 nM
GI50 (SF-539; SF-539): 338 nM
GI50 (BT-549 [2]; BT-549): 247 nM
activity at 10 µM (OVCAR-8; OVCAR-8, read-out: Growth percent): -85%
GI50 (Breast Cancer panel): 270 nM
activity at 10 µM (SK-MEL-2; SK-MEL-2, read-out: Growth percent): -85.4%
GI50 (Renal Cancer panel): 1050 nM
activity at 10 µM (RXF 393 [3]; RXF 393, read-out: Growth percent): -82.8%
GI50 (HCT-15 [4]; HCT-15): 1620 nM
activity at 10 µM (UACC-62; UACC-62, read-out: Growth percent): -96.8%
activity at 10 µM (LOX IMVI): -89.3%
activity at 10 µM (CAKI-1; CAKI-1, read-out: Growth percent): -95.3%
GI50 (COLO 205; COLO 205): 176 nM
activity at 10 µM (OVCAR-3 [5]; OVCAR-3, read-out: Growth percent): -61.9%
GI50 (SK-MEL-28 [6]; SK-MEL-28): 361 nM
GI50 (CNS Cancer panel): 360 nM
activity at 10 µM (MALME-3M [7]; Malme-3M): -94.4%
activity at 10 µM (NCI-H23; NCI-H23, read-out: Growth percent): -90.7%
activity at 10 µM (HL-60(TB) [8]; HL-60, read-out: Growth percent): -47.5%
GI50 (RXF 393 [9]; RXF 393): 279 nM
GI50 (OVCAR-3 [10]; OVCAR-3): 374 nM
activity at 10 µM (BT-549 [11]; BT-549, read-out: Growth percent): -96.9%
activity at 10 µM (UO-31; UO-31, read-out: Growth percent): -97.4%
activity at 10 µM (HT29; HT-29, read-out: Growth percent): -80.7%
activity at 10 µM (OVCAR-4; OVCAR-4, read-out: Growth percent): -73.5%
activity at 10 µM (SK-MEL-28 [12]; SK-MEL-28, read-out: Growth percent): -96.6%
GI50 (Leukemia panel): 260 nM
GI50 (NCI-H322M [13]): 785 nM
GI50 (Ovarian Cancer panel): 1570 nM
GI50 (HL-60(TB) [14]; HL-60): 162 nM
GI50 (K-562): 291 nM
GI50 (HCC-2998; HCC 2998): 415 nM
activity at 10 µM (HCT-15 [15]; HCT-15, read-out: Growth percent): -91%
activity at 10 µM (CCRF-CEM): -67%
activity at 10 µM (SNB-75; SNB-75, read-out: Growth percent): -61.2%
activity at 10 µM (NCI-H322M [16]): -98.4%

CC[C@]12C=CCN3CC[C@@]4(c5ccc(OC)cc5N(C)[C@H]4[C@@](O)(C(=O)OC)[C@@H]1OC(=O)CCC[P+](c1ccc(OC)cc1)(c1ccc(OC)cc1)c1ccc(OC)cc1)[C@@H]32 [9b]
GI50 (SK-OV-3; SK-OV-3, Ovarian Cancer, five-dose, read-out: GI50): 1020 nM
activity at 10 µM (SNB-19; SNB-19, 10 μM, one-dose, read-out: Growth percent): -96.7%
activity at 10 µM (HCT-116; HCT-116, 10 μM, one-dose, read-out: Growth percent): -68.8%
activity at 10 µM (HOP-62; HOP-62, 10 μM, one-dose, read-out: Growth percent): -81.5%
GI50 (MALME-3M [1]; MALME-3M, Melanoma, five-dose, read-out: GI50): 624 nM
activity at 10 µM (A549/ATCC; A549/ATCC, 10 μM, one-dose, read-out: Growth percent): -91.4%
GI50 (RPMI-8226; RPMI-8226, Leukemia, five-dose, read-out: GI50): 275 nM
GI50 (SF-268; SF-268, CNS Cancer, five-dose, read-out: GI50): 1210 nM
activity at 10 µM (NCI-H226; NCI-H226, 10 μM, one-dose, read-out: Growth percent): -80.3%
GI50 (NCI/ADR-RES; Ovarian Cancer, five-dose, read-out: GI50): 18100 nM
GI50 (HS 578T; HS 578T, Breast Cancer, five-dose, read-out: GI50): 1180 nM
GI50 (SF-539; SF-539, CNS Cancer, five-dose, read-out: GI50): 1230 nM
GI50 (BT-549 [2]; BT-549, Breast Cancer, five-dose, read-out: GI50): 1050 nM
activity at 10 µM (OVCAR-8; OVCAR-8, 10 μM, one-dose, read-out: Growth percent): -86.2%
GI50 (Breast Cancer panel; mean over Breast Cancer panel): 640 nM
activity at 10 µM (SK-MEL-2; SK-MEL-2, 10 μM, one-dose, read-out: Growth percent): -90.6%
GI50 (Renal Cancer panel; mean over Renal Cancer panel): 3010 nM
activity at 10 µM (RXF 393 [3]; RXF 393, 10 μM, one-dose, read-out: Growth percent): -92.6%
GI50 (HCT-15 [4]; HCT-15, Colon Cancer, five-dose, read-out: GI50): 3640 nM
activity at 10 µM (UACC-62; UACC-62, 10 μM, one-dose, read-out: Growth percent): -97.1%
activity at 10 µM (LOX IMVI; 10 μM, one-dose): -96.4%
activity at 10 µM (CAKI-1; CAKI-1, 10 μM, one-dose, read-out: Growth percent): -93.3%
GI50 (COLO 205; COLO 205, COLO 205, Colon Cancer, five-dose, read-out: GI50): 194 nM
activity at 10 µM (OVCAR-3 [5]; OVCAR-3, 10 μM, one-dose, read-out: Growth percent): -73.6%
GI50 (SK-MEL-28 [6]; SK-MEL-28, Melanoma, five-dose, read-out: GI50): 453 nM
GI50 (CNS Cancer panel; mean over CNS Cancer panel): 1020 nM
activity at 10 µM (MALME-3M [7]; MALME-3M, 10 μM, one-dose): -97.8%
activity at 10 µM (NCI-H23; NCI-H23, 10 μM, one-dose, read-out: Growth percent): -92.5%
activity at 10 µM (HL-60(TB) [8]; HL-60(TB), 10 μM, one-dose, read-out: Growth percent): -39.6%
GI50 (RXF 393 [9]; RXF 393, Renal Cancer, five-dose, read-out: GI50): 482 nM
GI50 (OVCAR-3 [10]; OVCAR-3, Ovarian Cancer, five-dose, read-out: GI50): 624 nM
activity at 10 µM (BT-549 [11]; BT-549, 10 μM, one-dose, read-out: Growth percent): -96.6%
activity at 10 µM (UO-31; UO-31, 10 μM, one-dose, read-out: Growth percent): -56.8%
activity at 10 µM (HT29; HT-29, HT29, 10 μM, one-dose, read-out: Growth percent): -84.3%
activity at 10 µM (OVCAR-4; OVCAR-4, 10 μM, one-dose, read-out: Growth percent): -75.3%
activity at 10 µM (SK-MEL-28 [12]; SK-MEL-28, 10 μM, one-dose, read-out: Growth percent): -96.3%
GI50 (Leukemia panel; mean over Leukemia panel): 550 nM
GI50 (NCI-H322M [13]; Non-small Cell Lung Cancer, five-dose, read-out: GI50): 2860 nM
GI50 (Ovarian Cancer panel; mean over Ovarian Cancer panel): 3460 nM
GI50 (HL-60(TB) [14]; HL-60, HL-60(TB), Leukemia, five-dose, read-out: GI50): 256 nM
GI50 (K-562; K-562, Leukemia, five-dose, read-out: GI50): 556 nM
GI50 (HCC-2998; HCC-2998, Colon Cancer, five-dose, read-out: GI50): 498 nM
activity at 10 µM (HCT-15 [15]; HCT-15, 10 μM, one-dose, read-out: Growth percent): -86.3%
activity at 10 µM (CCRF-CEM; 10 μM, one-dose): -71.2%
activity at 10 µM (SNB-75; SNB-75, 10 μM, one-dose, read-out: Growth percent): -34%
activity at 10 µM (NCI-H322M [16]; 10 μM, one-dose): -97.7%
